Results as given in patent publication US9783505B2, “Substituted diaminopyrimidyl compounds, compositions thereof, and methods of treatment therewith” (Signal Pharmaceuticals, LLC, priority 2013, dated 2017).

Experiments:
PKC delta = target: T1, PKC delta (Homo sapiens, UniProt Q05655); assay: PKC delta Assay (384-well time resolved fluorescence, IMAP TR-FRET); type: biochemical; conditions: selectivity for PKC-theta over PKC-delta
T1 construct: purchased Invitrogen
Experimental: PKC delta Assay. A 384-well time resolved fluorescence assay was used to monitor PKC delta activity. The PKC delta assay was run in the following assay buffer: 50 mM HEPES pH 7.6, 10 mM MgCl2, 1 mM DTT, 0.01% Triton X-100, 0.01% BSA and 0.1 mM EDTA. To initiate the reaction, 200 nM of Fam-labeled S6-derived peptide (Molecular Devices) and 10 μM of ATP were mixed with 1.5 nM of PKC delta (Invitrogen), for a total assay volume of 25 μL in each well. The assay was incubated at room temperature for 2 hours and terminated using a 60 μL/well mixture of Detection Binding Solution: 70% IMAP Progressive Binding Buffer A, 30% IMAP Progressive Binding Buffer B, 1:600 Progressive Binding Reagent, and 1:400 TR-FRET Tb Donor (Molecular Devices). The assay plates were then incubated overnight at room temperature and read on the Perkin-Elmer Envision Reader.

His-PKC-theta = target: T2, His-PKC-theta (Homo sapiens, UniProt Q04759); assay: PKC-theta Assay (384-well time resolved fluorescence, IMAP TR-FRET); type: biochemical; conditions: read-out: Act. Level (IC50 in the PKC-theta Assay)
T2 construct: His; purchased Invitrogen
Procedure, shortened: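 Enzyme at 142 pM phosphorylated 200 nM Fam-S6 peptide with 10 μM ATP in 50 mM HEPES pH 7.6, 10 mM MgCl2, 1 mM DTT for 2 h at room temperature. Product was detected after overnight incubation with IMAP binding reagent and Tb donor by time-resolved FRET.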

T1 sequence (Q05655 whole entry): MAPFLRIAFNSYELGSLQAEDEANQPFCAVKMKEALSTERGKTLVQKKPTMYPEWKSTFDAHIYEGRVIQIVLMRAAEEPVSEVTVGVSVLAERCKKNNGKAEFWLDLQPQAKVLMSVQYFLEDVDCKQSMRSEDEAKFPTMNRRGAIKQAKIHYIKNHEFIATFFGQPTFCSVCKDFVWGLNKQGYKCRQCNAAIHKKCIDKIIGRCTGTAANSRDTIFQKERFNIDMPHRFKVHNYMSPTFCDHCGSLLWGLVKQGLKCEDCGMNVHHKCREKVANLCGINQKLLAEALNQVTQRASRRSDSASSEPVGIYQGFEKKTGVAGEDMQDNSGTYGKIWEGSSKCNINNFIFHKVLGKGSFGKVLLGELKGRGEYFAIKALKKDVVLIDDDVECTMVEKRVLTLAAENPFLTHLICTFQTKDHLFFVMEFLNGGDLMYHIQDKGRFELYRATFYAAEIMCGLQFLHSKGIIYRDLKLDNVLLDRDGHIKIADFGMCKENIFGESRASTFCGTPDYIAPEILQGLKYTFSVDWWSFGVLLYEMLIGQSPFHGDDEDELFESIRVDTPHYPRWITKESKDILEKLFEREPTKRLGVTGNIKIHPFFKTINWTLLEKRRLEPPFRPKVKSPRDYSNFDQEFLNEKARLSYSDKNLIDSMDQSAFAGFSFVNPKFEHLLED
T2 sequence (Q04759 whole entry): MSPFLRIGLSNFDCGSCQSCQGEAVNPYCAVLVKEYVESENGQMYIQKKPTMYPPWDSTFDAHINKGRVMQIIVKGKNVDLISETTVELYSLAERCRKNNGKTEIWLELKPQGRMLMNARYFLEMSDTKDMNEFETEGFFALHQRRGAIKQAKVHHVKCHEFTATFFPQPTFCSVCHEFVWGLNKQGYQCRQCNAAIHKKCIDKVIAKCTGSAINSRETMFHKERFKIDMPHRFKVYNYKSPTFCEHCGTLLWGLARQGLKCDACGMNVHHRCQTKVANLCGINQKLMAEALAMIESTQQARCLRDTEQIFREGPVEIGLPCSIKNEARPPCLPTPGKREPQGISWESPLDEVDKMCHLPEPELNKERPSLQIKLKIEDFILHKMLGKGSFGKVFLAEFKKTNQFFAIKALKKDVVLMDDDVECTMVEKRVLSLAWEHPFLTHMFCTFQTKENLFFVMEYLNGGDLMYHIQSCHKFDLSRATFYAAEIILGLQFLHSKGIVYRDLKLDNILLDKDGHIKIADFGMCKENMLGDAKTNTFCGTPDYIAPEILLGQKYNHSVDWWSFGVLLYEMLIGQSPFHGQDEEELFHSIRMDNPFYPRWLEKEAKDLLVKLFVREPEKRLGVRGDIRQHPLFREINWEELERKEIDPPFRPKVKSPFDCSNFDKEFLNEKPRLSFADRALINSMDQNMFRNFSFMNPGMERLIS

| IC50 (His-PKC-theta) | SMILES | Sel. Level (ratio of IC50 PKC-delta/IC50 PKC-theta) (PKC delta) |
| --- | --- | --- |
| 800 to 2000 nM | CC1(C)C[C@H](Nc2nc(NCCc3ccon3)ncc2C#N)CC[C@@H]1O [Cmpd 220] | G (selectivity between 5- and 20-fold (selectivity level G)) |
| 800 to 2000 nM | COc1cccc(CCNc2ncc(C#N)c(N[C@@H]3CC(O)C3(C)C)n2)n1 (stereo partly drawn) [Cmpd 227] | G (selectivity between 5- and 20-fold (selectivity level G)) |
| 2000 to 10000 nM | Cc1nc(CCNc2ncc(C#N)c(N[C@@H]3CC(O)C3(C)C)n2)no1 (stereo partly drawn) [Cmpd 233] | H (selectivity level of 5-fold or less (selectivity level H)) |
| 2000 to 10000 nM | Cc1ccc(CCNc2ncc(C#N)c(N[C@@H]3C[C@H](O)C3(C)C)n2)cn1 [Cmpd 235] | H (selectivity level of 5-fold or less (selectivity level H)) |
| 2000 to 10000 nM | COCc1noc(CCNc2ncc(C#N)c(N[C@@H]3CC(O)C3(C)C)n2)n1 (stereo partly drawn) [Cmpd 236] | H (selectivity level of 5-fold or less (selectivity level H)) |
| 800 to 2000 nM | CC1(C)[C@@H](O)C[C@H]1Nc1nc(NCCc2cc3ccccc3[nH]2)ncc1C#N [Cmpd 237] | G (selectivity between 5- and 20-fold (selectivity level G)) |
| 100 to 800 nM | CC1(C)[C@@H](O)C[C@H]1Nc1nc(NCCn2cccc2)ncc1C#N [Cmpd 238] | G (selectivity between 5- and 20-fold (selectivity level G)) |
| 800 to 2000 nM | Cc1cc2ccccc2n1CCNc1ncc(C#N)c(N[C@@H]2C[C@H](O)C2(C)C)n1 [Cmpd 243] | G (selectivity between 5- and 20-fold (selectivity level G)) |
| 800 to 2000 nM | CC1(C)[C@@H](O)C[C@H]1Nc1nc(NCCc2ccn[nH]2)ncc1C#N [Cmpd 245] | G (selectivity between 5- and 20-fold (selectivity level G)) |
| < 100 nM | CCc1ccc2c(c1)C(CCNc1ncc(C#N)c(N[C@@H]3CC[C@H](O)C(C)(C)C3)n1)C(=O)N2 (stereo partly drawn) [Cmpd 249] | E (selectivity (Sel. Level=ratio of IC50 PKC-delta/IC50 PKC-theta) of >100-fold (selectivity level E)) |
| 100 to 800 nM | CC1(C)C[C@H](Nc2nc(NCCc3ccc(OCC(F)(F)F)nc3)ncc2C#N)CC[C@@H]1O [Cmpd 253] | F (selectivity of between 20- and 100-fold (selectivity level F)) |
| 2000 to 10000 nM | CC1(C)CC(Nc2nc(NCCc3c[nH]c4cccnc34)ncc2C#N)CC[C@@H]1O (stereo partly drawn) [Cmpd 255] | H (selectivity level of 5-fold or less (selectivity level H)) |
| 100 to 800 nM | Cc1ncccc1CCNc1ncc(C#N)c(N[C@@H]2CC[C@H](O)C(C)(C)C2)n1 [Cmpd 258] | F (selectivity of between 20- and 100-fold (selectivity level F)) |
| < 100 nM | CC1(C)[C@@H](O)C[C@H]1Nc1nc(NCCC2C(=O)Nc3ccccc32)ncc1C#N (stereo partly drawn) [Cmpd 259] | E (selectivity (Sel. Level=ratio of IC50 PKC-delta/IC50 PKC-theta) of >100-fold (selectivity level E)) |
| < 100 nM | Cc1cccc2c1NC(=O)C2CCNc1ncc(C#N)c(N[C@@H]2C[C@H](O)C2(C)C)n1 (stereo partly drawn) [Cmpd 260] | F (selectivity of between 20- and 100-fold (selectivity level F)) |
| 2000 to 10000 nM | Cc1cccc(CCNc2ncc(C#N)c(N[C@@H]3C[C@H](O)C3(C)C)n2)n1 [Cmpd 262] | H (selectivity level of 5-fold or less (selectivity level H)) |

The remaining lines, values behind:

| SMILES | IC50 (His-PKC-theta) | Sel. Level (ratio of IC50 PKC-delta/IC50 PKC-theta) (PKC delta) |
| --- | --- | --- |
| CC1(C)C[C@H](Nc2nc(NCCc3noc(C(F)(F)F)n3)ncc2C#N)CC[C@@H]1O [Cmpd 219] | 800 to 2000 nM | G (selectivity between 5- and 20-fold (selectivity level G)) |
| CC1(C)C[C@H](Nc2nc(NCCn3ccnc3)ncc2C#N)CC[C@@H]1O [Cmpd 221] | 2000 to 10000 nM | H (selectivity level of 5-fold or less (selectivity level H)) |
| CC1(C)C[C@H](Nc2nc(NCCc3cnoc3)ncc2C#N)CC[C@@H]1O [Cmpd 222] | 800 to 2000 nM | G (selectivity between 5- and 20-fold (selectivity level G)) |
| CC1(C)C[C@H](Nc2nc(NCCn3cncn3)ncc2C#N)CC[C@@H]1O [Cmpd 223] | 2000 to 10000 nM | H (selectivity level of 5-fold or less (selectivity level H)) |
| Cc1cccnc1CCNc1ncc(C#N)c(NC2C[C@H](O)C2(C)C)n1 (stereo partly drawn) [Cmpd 224] | 2000 to 10000 nM | H (selectivity level of 5-fold or less (selectivity level H)) |
| Cc1cc(C(F)(F)F)nn1CCNc1ncc(C#N)c(N[C@@H]2CC(O)C2(C)C)n1 (stereo partly drawn) [Cmpd 225] | 2000 to 10000 nM | H (selectivity level of 5-fold or less (selectivity level H)) |
| CC1(C)C(O)C[C@H]1Nc1nc(NCCc2cnccn2)ncc1C#N (stereo partly drawn) [Cmpd 226] | 2000 to 10000 nM | H (selectivity level of 5-fold or less (selectivity level H)) |
| CC1(C)[C@@H](O)C[C@H]1Nc1nc(NCCc2ccon2)ncc1C#N [Cmpd 228] | 800 to 2000 nM | G (selectivity between 5- and 20-fold (selectivity level G)) |
| CC1(C)[C@@H](O)C[C@H]1Nc1nc(NCCc2cccc3cc[nH]c23)ncc1C#N [Cmpd 229] | 800 to 2000 nM | G (selectivity between 5- and 20-fold (selectivity level G)) |
| CC1(C)[C@@H](O)C[C@H]1Nc1nc(NCCc2ncon2)ncc1C#N [Cmpd 230] | 2000 to 10000 nM | H (selectivity level of 5-fold or less (selectivity level H)) |
| CC1(C)C(O)C[C@H]1Nc1nc(NCCc2cccnc2)ncc1C#N (stereo partly drawn) [Cmpd 231] | 800 to 2000 nM | G (selectivity between 5- and 20-fold (selectivity level G)) |
| Cc1ccc(CCNc2ncc(C#N)c(N[C@@H]3CC(O)C3(C)C)n2)o1 (stereo partly drawn) [Cmpd 232] | 100 to 800 nM | F (selectivity of between 20- and 100-fold (selectivity level F)) |
| CC1(C)[C@@H](O)C[C@H]1Nc1nc(NCCc2ccco2)ncc1C#N [Cmpd 234] | 800 to 2000 nM | G (selectivity between 5- and 20-fold (selectivity level G)) |
| CC1(C)[C@@H](O)C[C@H]1Nc1nc(NCCn2ccc3ccccc32)ncc1C#N [Cmpd 239] | 2000 to 10000 nM | H (selectivity level of 5-fold or less (selectivity level H)) |
| CC1(C)[C@@H](O)C[C@H]1Nc1nc(NCCc2c[nH]c3ccccc23)ncc1C#N [Cmpd 240] | < 100 nM | G (selectivity between 5- and 20-fold (selectivity level G)) |
| CC1(C)[C@@H](O)C[C@H]1Nc1nc(NCCc2c[nH]c3ncccc23)ncc1C#N [Cmpd 241] | 800 to 2000 nM | G (selectivity between 5- and 20-fold (selectivity level G)) |
| CC1(C)[C@@H](O)C[C@H]1Nc1nc(NCCc2nc3ccccc3o2)ncc1C#N [Cmpd 242] | 2000 to 10000 nM | H (selectivity level of 5-fold or less (selectivity level H)) |
| CC1(C)[C@@H](O)C[C@H]1Nc1nc(NCCc2cn[nH]c2)ncc1C#N [Cmpd 244] | 100 to 800 nM | G (selectivity between 5- and 20-fold (selectivity level G)) |
| CC1(C)[C@@H](O)C[C@H]1Nc1nc(NCCc2cnoc2)ncc1C#N [Cmpd 246] | 2000 to 10000 nM | H (selectivity level of 5-fold or less (selectivity level H)) |
| Cc1cccc2c1NC(=O)C2CCNc1ncc(C#N)c(N[C@@H]2CC[C@H](O)C(C)(C)C2)n1 (stereo partly drawn) [Cmpd 248] | < 100 nM | F (selectivity of between 20- and 100-fold (selectivity level F)) |
| Cc1cccc(CCNc2ncc(C#N)c(N[C@@H]3CC[C@H](O)C(C)(C)C3)n2)n1 [Cmpd 250] | 800 to 2000 nM | G (selectivity between 5- and 20-fold (selectivity level G)) |
| CC1(C)C[C@H](Nc2nc(NCCc3cc4cc(C#N)ccc4[nH]3)ncc2C#N)CC[C@@H]1O [Cmpd 251] | 100 to 800 nM | G (selectivity between 5- and 20-fold (selectivity level G)) |
| CC1(C)C[C@H](Nc2nc(NCCc3c[nH]c4cc(F)ccc34)ncc2C#N)CC[C@@H]1O [Cmpd 252] | < 100 nM | E (selectivity (Sel. Level=ratio of IC50 PKC-delta/IC50 PKC-theta) of >100-fold (selectivity level E)) |
| Cc1[nH]c2cc(Cl)cc(Cl)c2c1CCNc1ncc(C#N)c(N[C@@H]2CC[C@H](O)C(C)(C)C2)n1 [Cmpd 254] | 100 to 800 nM | G (selectivity between 5- and 20-fold (selectivity level G)) |
| CC1(C)C[C@H](Nc2nc(NCCc3ccc4ccccc4n3)ncc2C#N)CC[C@@H]1O [Cmpd 256] | 800 to 2000 nM | G (selectivity between 5- and 20-fold (selectivity level G)) |
| CCOc1cccc(CCNc2ncc(C#N)c(N[C@@H]3CC[C@H](O)C(C)(C)C3)n2)n1 [Cmpd 257] | 800 to 2000 nM | G (selectivity between 5- and 20-fold (selectivity level G)) |
